Data as given in ChEMBL document CHEMBL1201862, “PubChem BioAssay data set” (2004).
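96-well plates; 48 h exposure; 5 concentrations. Endpoints by linear interpolation between flanking doses. Not reached: highest tested concentration assigned. GI50 marks 50% less growth.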 Activity calls are given as the source filed them. Cut-off read from the data, not from the text of the source: active = GI50 up to about 1.1 µM and inactive = higher.

Legend:
Assay in all cases: growth of human tumour cells (NCI), 48 h
[1] = test system: UO-31
[2] = test system: A498
[3] = test system: CAKI-1
[4] = test system: 786-0
[5] = test system: HT-29
[6] = test system: OVCAR-3
[7] = test system: MOLT-4
[8] = test system: SK-MEL-28
[9] = test system: UACC-62
[10] = test system: DU-145
[11] = test system: Hs-578T
[12] = test system: KM12
[13] = test system: SF-268
[14] = test system: CCRF-CEM
[15] = test system: NCI-H460
[16] = test system: SK-MEL-5
[17] = test system: NCI-H23
[18] = test system: NCI-H522
[19] = test system: UACC-257
[20] = test system: TK-10
[21] = test system: BT-549
[22] = test system: U-251
[23] = test system: LOX IMVI
[24] = test system: MDA-MB-435
[25] = test system: HCT-15
[26] = test system: SW-620
[27] = test system: HOP-92
[28] = test system: MCF7
[29] = test system: SNB-75
[30] = test system: NCI/ADR-RES
[31] = test system: ACHN
[32] = test system: OVCAR-5
[33] = test system: PC-3
[34] = test system: NCI-H226
[35] = test system: SNB-19
[36] = test system: HCC 2998
[37] = test system: MDA-MB-231
[38] = test system: A549
[39] = test system: HOP-62
[40] = test system: HCT-116
[41] = test system: HL-60
[42] = test system: MDA-N
[43] = test system: SK-MEL-2
[44] = test system: IGROV-1
[45] = test system: EKVX
[46] = test system: RPMI-8226
[47] = test system: Malme-3M
[48] = test system: OVCAR-8
[49] = test system: T47D
[50] = test system: SF-295
[51] = test system: SF-539
[52] = test system: SR
[53] = test system: COLO 205
[54] = test system: RXF 393
[55] = test system: M14
[56] = test system: OVCAR-4
[57] = test system: SK-OV-3
[58] = test system: K562
[59] = test system: SN12C

CC(=O)OC(C)(C)/N=N/c1ccc(Br)cc1
GI50 [1]: 0.425 µM (active)
GI50 [2]: > 87.5 µM (inactive)
GI50 [3]: 16.7 µM (inactive)
GI50 [4]: 22.9 µM (inactive)
GI50 [5]: 0.975 µM (active)
GI50 [6]: 13.6 µM (inactive)
GI50 [7]: 3.56 µM (inactive)
GI50 [8]: 3.01 µM (inactive)
GI50 [9]: 0.052 µM (active)
GI50 [10]: 54.2 µM (inactive)
GI50 [11]: > 53.2 µM (inactive)
GI50 [12]: 5.79 µM (inactive)
GI50 [13]: 17.4 µM (inactive)
GI50 [14]: 10.2 µM (inactive)
GI50 [15]: 0.946 µM (active)
GI50 [16]: 0.209 µM (active)
GI50 [17]: 25.8 µM (inactive)
GI50 [18]: 9.4 µM (inactive)
GI50 [19]: 5.45 µM (inactive)
GI50 [20]: 23.7 µM (inactive)
GI50 [21]: 97.7 µM (inactive)
GI50 [22]: 25.1 µM (inactive)
GI50 [23]: 3.09 µM (inactive)
GI50 [24]: 1.08 µM (active)
GI50 [25]: 0.977 µM
GI50 [26]: 48.2 µM (inactive)
GI50 [27]: 23.7 µM (inactive)
GI50 [28]: 0.551 µM (active)
GI50 [29]: > 53.5 µM (inactive)
GI50 [30]: 14.4 µM (inactive)
GI50 [31]: 1.33 µM (inactive)
GI50 [32]: 1.66 µM (inactive)
GI50 [33]: 24.3 µM (inactive)
GI50 [34]: 2.96 µM (inactive)
GI50 [35]: > 68.2 µM (inactive)
GI50 [36]: 16.6 µM (inactive)
GI50 [37]: > 76.2 µM (inactive)
GI50 [38]: 6.04 µM (inactive)
GI50 [39]: 34.3 µM (inactive)
GI50 [40]: 0.851 µM (active)
GI50 [41]: 0.653 µM (active)
GI50 [42]: 0.178 µM (active)
GI50 [43]: > 85.7 µM (inactive)
GI50 [44]: 18.7 µM (inactive)
GI50 [45]: 9.38 µM (inactive)
GI50 [46]: 0.942 µM (active)
GI50 [47]: > 43.1 µM (inactive)
GI50 [48]: 17.5 µM (inactive)
GI50 [49]: 1.09 µM (active)
GI50 [50]: 0.153 µM (active)
GI50 [51]: 0.841 µM (active)
GI50 [52]: 0.475 µM (active)
GI50 [53]: 0.52 µM (active)
GI50 [54]: 20.6 µM (inactive)
GI50 [55]: 0.277 µM (active)
GI50 [56]: 9.18 µM (inactive)
GI50 [57]: > 33.9 µM (inactive)
GI50 [58]: 0.0596 µM (active)
GI50 [59]: 32.7 µM (inactive)

O=C(O)C(Sc1ccc(Cl)cc1)Sc1ccc(Cl)cc1
GI50 [1]: 29.7 µM (inactive)
GI50 [2]: 34.8 µM (inactive)
GI50 [3]: 82.8 µM (inactive)
GI50 [4]: 48 µM (inactive)
GI50 [5]: 43.3 µM (inactive)
GI50 [6]: 32.6 µM (inactive)
GI50 [7]: 41.3 µM (inactive)
GI50 [8]: 70 µM (inactive)
GI50 [9]: 27.7 µM (inactive)
GI50 [10]: 71 µM (inactive)
GI50 [11]: 38.3 µM (inactive)
GI50 [12]: 37.9 µM (inactive)
GI50 [13]: 48.9 µM (inactive)
GI50 [14]: 28.6 µM (inactive)
GI50 [15]: 34 µM (inactive)
GI50 [16]: 35.6 µM (inactive)
GI50 [17]: 44.2 µM (inactive)
GI50 [18]: 32.1 µM (inactive)
GI50 [19]: 44.5 µM (inactive)
GI50 [20]: 48.6 µM (inactive)
GI50 [21]: 54.5 µM (inactive)
GI50 [22]: 36.4 µM (inactive)
GI50 [23]: 41.9 µM (inactive)
GI50 [24]: 43.1 µM (inactive)
GI50 [25]: 36 µM
GI50 [26]: 58.7 µM (inactive)
GI50 [27]: 23.7 µM (inactive)
GI50 [28]: 92.3 µM (inactive)
GI50 [29]: 89.7 µM (inactive)
GI50 [30]: 47.3 µM (inactive)
GI50 [31]: 47.4 µM (inactive)
GI50 [32]: 53 µM (inactive)
GI50 [33]: 47.4 µM (inactive)
GI50 [34]: 51.9 µM (inactive)
GI50 [35]: 40.6 µM (inactive)
GI50 [36]: 25.6 µM (inactive)
GI50 [37]: 66.8 µM (inactive)
GI50 [38]: 29.9 µM (inactive)
GI50 [39]: 79.3 µM (inactive)
GI50 [40]: 35.2 µM (inactive)
GI50 [41]: 33.8 µM (inactive)
GI50 [42]: 41.5 µM (inactive)
GI50 [43]: 26.3 µM (inactive)
GI50 [44]: 39.8 µM (inactive)
GI50 [45]: 31.5 µM (inactive)
GI50 [46]: 31.6 µM (inactive)
GI50 [47]: 71 µM (inactive)
GI50 [48]: 43.9 µM (inactive)
GI50 [49]: 64 µM (inactive)
GI50 [50]: 46.9 µM (inactive)
GI50 [51]: 39.3 µM (inactive)
GI50 [52]: 39.6 µM (inactive)
GI50 [53]: 25.9 µM (inactive)
GI50 [54]: > 100 µM (inactive)
GI50 [55]: 39.6 µM (inactive)
GI50 [56]: 48.4 µM (inactive)
GI50 [57]: > 100 µM (inactive)
GI50 [58]: 33.1 µM (inactive)
GI50 [59]: 47 µM (inactive)
